Literature values as cited in patent US10052328B2, “Therapeutic composition to treat lesions caused by Herpes Simplex Virus” (G2L TOUCH, INC., priority 2009, dated 2018).

Tested on: cold sore (labial herpes simplex)
Conditions: commercial topical cream, versus untreated cold sores

SMILES: Nc1nc(=O)c2ncn(CCC(CO)CO)c2[nH]1 [PCV, 2-amino-9-[4-hydroxy-3-(hydroxymethyl)butyl]-6,9-dihydro-3H-purin-6-one]
- reduction of the duration of a cold sore / lesion, on average: 0.5 days
